Experimental data as given in patent publication US20070071677A1 (priority 2003, published 2007).
Ends that are not written are not given here.

What follows are substances tested on cell lines described in Example 3 (293T, HeLa, CT26, MCF-7) (assay: Cytotoxicity of LMWP peptides, MTT colorimetric assay). Conditions: FIG. 5; TAT at 5.0 mM and 10.0 mM.
Format: cell-based, human, murine
Description: Cytotoxicity of the LMWP peptides and TDSP5-gelonin conjugates were examined using the cell lines described in Example 3. In brief, cells grown to 75% confluency were incubated with various concentrations of LMWP peptides, TAT peptide, TDSP5-gelonin conjugate, or TAT-gelonin conjugates. Cell proliferation was measured over 3 days, and cytotoxicity was determined using a colorimetric assay, which was performed by removing the cell culture medium and replacing it with PBS containing 5 mg/ml of 3-(4,5-dimethylthiazol-2-yl)-2,5-diphenyltetrazolium bromide (MTT). The absorbance of the cell culture medium following MTT addition was measured at 540 nm, and the survival ratio was determined by the ratio of the absorbance of sample-treated cells to that of control cells.
In the case of ASRRRRRGGRRRR [TDSP4], the “cell cytotoxicity (in words)” value is reported as “little or no toxicity”.
In the case of PRRRRR [TDSP2], the “cell cytotoxicity (in words)” value is reported as “little or no toxicity”.
PRRRRSSRRP [TDSP3] was tested, and the “cell cytotoxicity (in words)” value was “little or no toxicity”.
For VSRRRRRRGGRRRR [TDSP5], the “cell cytotoxicity (in words)” value was “little or no toxicity”.
